US8431530B2, “Compositions and methods for treating aids or cancer by inhibiting the secretion of microparticles” (priority 2009, dated 2013)

System: R7 in Jurkat cells
Assay: Confocal microscopy of p24 in R7 transfected cells
Type: cell-based, HIV
Conditions: day 3, 6, 10, 14, 17 after transfection with R7, accumulation in cytoplasm day 3, 6, 10
From the text: FIG. 4A is a composite of diagrams showing ELISA analysis of p24 concentration in Jurkat cells (panel A), HEK293 cells (panel B), THP-1 Monocytes (panel C) and U937 monocytes (panel D). FIG. 4B is a composite of confocal microscope pictures showing blocking of p24 release in Jurkat cells by SMRwt peptide (panel A) but not by SMRrmt peptide (panel B). FIG. 4C is a composite of confocal and electron microscope pictures showing viral particle distribution in Jurkat cells at day 6 post-transfection with R7 and SMRwt peptide (panel A-1) or with R7 and SMRmt peptide (panel B-1). FIG. 4D is a composite of confocal and electron microscope pictures showing viral particle distribution in Jurkat cells at day 14 post-transfection with R7 and SMRwt peptide (panel A-2) or with R7 and SMRmt peptide (panel B-2), FIG. 4E is a composite of confocal and electron microscope pictures showing viral particle distribution in subcellular structures in Jurkat cells at day 6 post-transfection with R7 and SMRwt peptide (panel A-1) or with R7 and SMRmt peptide (panel B-1) in Jurkat cells and at day 14 post-transfection with R7 and SMRwt peptide (panel A-2) or with R7 and SMRmt peptide (panel B-2) in Jurkat cells.
The effect of SMRwt, however, seems to be temporary. It appears that Jurkat and HEK cells can degrade the peptide over time, while U937 monocytes cannot degrade the peptide. […]

H-VGFPVAAVGFPVDYKDDDDK-OH [SMRwt]
p24 release (confocal microscopy): blockage of p24 release
